Reference: patent publication US20200361871A1 (Enterprise Therapeutics Ltd., priority 2018, published 2020)

Target: human TMEM16A (TMEM16Aabc variant) (Homo sapiens, UniProt Q5XXA6, DEL476-501, form not given)
Experiment: Automated whole-cell patch clamp (Qpatch) TMEM16A potentiator assay in FRT cells stably expressing human TMEM16A
Assay type: cell-based
Settings: for % Potentiation @ 3.33 μM Avg: 3.33 μM solution of test compound, percentage increase of baseline TMEM16A current; for EC50: calculated EC50, Qpatch TMEM16A current at +70 mV
Summary of the method: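 FRT cells stably expressing human TMEM16Aabc were recorded by automated whole-cell patch clamp, with intracellular Ca2+ buffered for ~EC20 activation, holding −70 mV and step to +70 mV at 0.05 Hz. Compound was applied cumulatively, 5 min per concentration. Peak current increase as % of baseline was fitted to give EC50 and maximum efficacy.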

human TMEM16A (TMEM16Aabc variant), sequence (Q5XXA6 with tags, fused parts or gaps DEL476-501): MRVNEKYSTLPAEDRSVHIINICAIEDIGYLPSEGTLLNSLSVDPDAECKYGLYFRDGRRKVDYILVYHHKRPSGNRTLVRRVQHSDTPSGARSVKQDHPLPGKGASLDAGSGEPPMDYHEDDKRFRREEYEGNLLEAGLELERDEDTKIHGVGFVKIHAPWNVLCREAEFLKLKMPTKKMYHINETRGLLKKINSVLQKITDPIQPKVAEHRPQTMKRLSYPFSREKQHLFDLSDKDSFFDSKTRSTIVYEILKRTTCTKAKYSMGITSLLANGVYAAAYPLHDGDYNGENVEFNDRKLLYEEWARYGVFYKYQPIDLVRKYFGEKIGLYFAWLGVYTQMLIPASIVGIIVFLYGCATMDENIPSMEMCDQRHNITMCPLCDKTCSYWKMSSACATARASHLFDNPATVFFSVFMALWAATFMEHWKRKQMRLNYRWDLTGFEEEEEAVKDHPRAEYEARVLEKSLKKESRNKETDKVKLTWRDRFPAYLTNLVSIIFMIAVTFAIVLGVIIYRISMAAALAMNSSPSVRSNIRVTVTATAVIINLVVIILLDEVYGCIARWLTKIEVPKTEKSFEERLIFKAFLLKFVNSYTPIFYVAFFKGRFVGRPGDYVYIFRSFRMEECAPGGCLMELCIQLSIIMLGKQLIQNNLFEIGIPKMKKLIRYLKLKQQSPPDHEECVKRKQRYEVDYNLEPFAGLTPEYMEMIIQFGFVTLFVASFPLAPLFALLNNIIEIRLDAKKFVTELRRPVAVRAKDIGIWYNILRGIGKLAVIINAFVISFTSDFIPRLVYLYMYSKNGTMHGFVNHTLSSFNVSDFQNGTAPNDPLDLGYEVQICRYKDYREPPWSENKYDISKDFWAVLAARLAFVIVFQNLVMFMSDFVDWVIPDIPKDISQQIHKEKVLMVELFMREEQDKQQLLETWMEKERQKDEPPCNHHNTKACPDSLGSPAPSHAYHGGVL

| SMILES | % Potentiation @ 3.33 μM Avg [%] | EC50 [nM] |
| --- | --- | --- |
| CC(C)(CCNC(=O)C(C)(C)C)NC(=O)c1cc(NC(=O)Cc2cc(Cl)ccc2O)ccn1 [Example 45, 4-[[2-(5-Chloro-2-hydroxy-phenyl)acetyl]amino]-N-[3-(2,2-dimethylpropanoylamino)-1,1-dimethyl-propyl]pyridine-2-carboxamide] | 151 | – |
| N#CC1(NC(=O)c2cc(NC(=O)Cc3cc(Cl)ccc3O)ccn2)CCOC1 (stereo not drawn) [Example 47, 4-[[2-(5-Chloro-2-hydroxy-phenyl)acetyl]amino]-N-(3-cyanotetrahydrofuran-3-yl)pyridine-2-carboxamide] | 237 | 180 |
| COC(=O)CC1(NC(=O)c2cc(NC(=O)Cc3cc(Cl)ccc3O)ccn2)CCOCC1 [Example 47.1, Methyl2-[4-[[4-[[2-(5-chloro-2-hydroxy-phenyl)acetyl]amino]pyridine-2-carbonyl]amino]tetrahydropyran-4-yl]acetate] | 156 | 1920 |
| COC(=O)C1(NC(=O)c2cc(NC(=O)Cc3cc(Cl)ccc3O)ccn2)CCOCC1 [Example 47.2, Methyl 4-[[4-[[2-(5-chloro-2-hydroxy-phenyl)acetyl]amino]pyridine-2-carbonyl]amino]tetrahydropyran-4-carboxylate] | 212 | 230 |
| N#CC1(NC(=O)c2cc(NC(=O)Cc3cc(Cl)ccc3O)ccn2)COC1 [Example 47.3, 4-[[2-(5-Chloro-2-hydroxy-phenyl)acetyl]amino]-N-(3-cyanooxetan-3-yl)pyridine-2-carboxamide] | 237 | 350 |
| CC1(NC(=O)c2cc(NC(=O)Cc3cc(F)ccc3O)ccn2)CCC1 [Example 48, 4-[[2-(5-Fluoro-2-hydroxy-phenyl)acetyl]amino]-N-(1-methylcyclobutyl)pyridine-2-carboxamide] | 195 | 100 |
| N#CC1(NC(=O)c2cc(NC(=O)Cc3cc(F)ccc3O)ccn2)CCOCC1 [Example 48.1, N-(4-Cyanotetrahydropyran-4-yl)-4-[[2-(5-fluoro-2-hydroxy-phenyl)acetyl]amino] pyridine-2-carboxamide] | 185 | 420 |
| CC(C)(C)NC(=O)CC(C)(C)NC(=O)c1cc(NC(=O)Cc2cc(Cl)ccc2O)ccn1 [Example 49, N-[3-(tert-Butylamino)-1,1-dimethyl-3-oxo-propyl]-4-[[2-(5-chloro-2-hydroxy-phenyl)acetyl]amino]pyridine-2-carboxamide] | 226 | 680 |
| CC(C)(CCNS(C)(=O)=O)NC(=O)c1cc(NC(=O)Cc2cc(Cl)ccc2O)ccn1 [Example 50, 4-[[2-(5-Chloro-2-hydroxy-phenyl)acetyl]amino]-N-[3-(methanesulfonamido)-1,1-dimethyl-propyl]pyridine-2-carboxamide] | 65 | – |
| CC(=O)NCCC(C)(C)NC(=O)c1cc(NC(=O)Cc2cc(Cl)ccc2O)ccn1 [Example 51, N-(3-Acetamido-1,1-dimethyl-propyl)-4-[[2-(5-chloro-2-hydroxy-phenyl)acetyl]amino]pyridine-2-carboxamide] | 54 | – |
| O=C(Cc1cc(Cl)ccc1O)Nc1ccnc(C(=O)NC2(CO)CCOCC2)c1 [Example 53, 4-[[2-(5-Chloro-2-hydroxy-phenyl)acetyl]amino]-N-[4-(hydroxymethyl)tetrahydropyran-4-yl]pyridine-2-carboxamide] | 184 | 390 |
| CC(O)c1cccc(CC(=O)Nc2ccnc(C(=O)NC(C)(C)C)c2)c1 (stereo not drawn) [Example 54, N-tert-Butyl-4-[[2-[3-(1-hydroxyethyl)phenyl]acetyl]amino]pyridine-2-carboxamide] | 62 | – |
| CC(C)(C)NC(=O)c1cc(NC(=O)Cc2cc(Cl)ccc2O)c(Cl)cn1 [Example 55, N-tert-Butyl-5-chloro-4-[[2-(5-chloro-2-hydroxy-phenyl)acetyl]amino]pyridine-2-carboxamide] | 114 | – |
| COc1ccc(COc2ccc(Cl)cc2CC(=O)Nc2ccnc(C(=O)NC(C)(C)C)c2)cc1 [Example 56, N-tert-Butyl-4-[[2-[5-chloro-2-[(4-methoxyphenyl)methoxy]phenyl]acetyl]amino]pyridine-2-carboxamide] | 76 | – |
| CC(C)(C)NC(=O)c1cc(NC(=O)Cc2ccccc2C2CC2)ccn1 [Example 58, N-tert-Butyl-4-[[2-(2-cyclopropylphenyl)acetyl]amino]pyridine-2-carboxamide] | 217 | – |
| CC(C)(C)NC(=O)c1cc(NC(=O)Cc2cc(Cl)cc(Br)c2O)ccn1 [Example 59, 4-[[2-(3-Bromo-5-chloro-2-hydroxy-phenyl)acetyl]amino]-N-tert-butyl-pyridine-2-carboxamide] | 175 | – |
| O=C(Cc1ccccc1F)Nc1ccnc(C(=O)NC23CCC(F)(C2)C3)c1 [Example 60, N-(4-Fluoro-1-bicyclo[2.1.1]hexanyl)-4-[[2-(2-fluorophenyl)acetyl]amino]pyridine-2-carboxamide] | 126 | 350 |
| CC(C#N)(CO)NC(=O)c1cc(NC(=O)Cc2ccccc2F)ccn1 (stereo not drawn) [Example 60.1, N-(1-Cyano-2-hydroxy-1-methyl-ethyl)-4-[[2-(2-fluorophenyl)acetyl]amino]pyridine-2-carboxamide] | 60 | – |
| C#CC(C)(C)NC(=O)c1cc(NC(=O)Cc2ccccc2F)ccn1 [Example 60.2, N-(1,1-Dimethylprop-2-ynyl)-4-[[2-(2-fluorophenyl)acetyl]amino]pyridine-2-carboxamide] | 169 | 200 |
| CC(C)c1cc(Cl)cc(CC(=O)Nc2ccnc(C(=O)NC(C)(C)C)c2)c1O [Example 61, N-tert-Butyl-4-[[2-(5-chloro-2-hydroxy-3-isopropyl-phenyl)acetyl]amino]pyridine-2-carboxamide] | 85 | – |
| COC(C)c1cc(Cl)cc(CC(=O)Nc2ccnc(C(=O)NC(C)(C)C)c2)c1O (stereo not drawn) [Example 62, N-tert-Butyl-4-[[2-[5-chloro-2-hydroxy-3-(1-methoxyethyl)phenyl]acetyl]amino] pyridine-2-carboxamide] | 99 | – |
| O=C(Cc1ccc2ncccc2c1)Nc1ccnc(C(=O)NC2CCOCC2)c1 [Example 63, 4-[[2-(6-Quinolyl)acetyl]amino]-N-tetrahydropyran-4-yl-pyridine-2-carboxamide] | 37 | – |
| CC(C)(C)NC(=O)c1cc(NC(=O)NCc2ccccc2)ccn1 [Example 64, 4-(Benzylcarbamoylamino)-N-tert-butyl-pyridine-2-carboxamide] | 55 | – |
| CC(C)(C)NC(=O)c1cc(NC(=O)NCC2CCCCC2)ccn1 [Example 64.1, N-tert-Butyl-4-(cyclohexylmethylcarbamoylamino)pyridine-2-carboxamide] | 78 | – |
| CC(C)(C)NC(=O)c1cc(NC(=O)NCCc2ccccc2)ccn1 [Example 64.2, N-tert-Butyl-4-(2-phenylethylcarbamoylamino)pyridine-2-carboxamide] | 61 | – |
| C[C@@H](NC(=O)Nc1ccnc(C(=O)NC(C)(C)C)c1)c1ccccc1 [Example 64.3, N-tert-Butyl-4-[[(1R)-1-phenylethyl]carbamoylamino]pyridine-2-carboxamide] | 70 | – |
